The values that follow come from US20140094370A1, “FORMULATION COMPONENT” (SYNGENTA LIMITED, priority 2011, published 2014).

The test system of assay [1] is Chenopodium album (CHEAL), Abutilon theophrasti (ABUTH), Setaria viridis (SETVI) and Xanthium strumarium (XANST). Put plainly: Glasshouse herbicide efficacy test of fomesafen compositions with adjuvant against four weed species. Format: in vivo. The conditions noted are these: mean over fomesafen 60 and 120 g/ha, three replicates, four weed species, 2, 7 and 14 days after application; adjuvant 0.5% v/v; 200 liters per hectare. As for the experimental part:
(§1) The aromatic ester bis-2-ethylhexyl phthalate was tested as an adjuvant in compositions of fomesafen, in a glasshouse against four weed species. An agrochemical composition was prepared containing 0.5% v/v of the adjuvant in a track sprayer and was applied at a volume of 200 liters per hectare. Fomesafen was applied at a rate of either 60 or 120 grams per hectare. The adjuvant oils were emulsified using a small amount of the surfactant Pluronic® PE 10500, which was present in the composition at a concentration of 0.02% v/v. The weed species and their growth stage at spraying were Chenopodium album (CHEAL; growth stage 14), Abutilon theophrasti (ABUTH; growth stage 12), Setaria viridis (SETVI; growth stage 13), and Xanthium strumarium (XANST; growth stage 12).
Each spray test was replicated three times. The efficacy of the herbicide was assessed visually and expressed as a percentage of the leaf area killed. Samples were assessed at time periods of 2, 7 and 14 days following application. The results shown below in Table 11 are mean averages over the two rates of fomesafen, three replicates, four weed species and the three assessment timings, and are compared to the efficacy of fomesafen without adjuvant and fomesafen with the commercially available adjuvant Turbocharge® (applied at 0.5% v/v).

Assay [2] deals with Polygonum convolvulus (POLCO), Brachiaria platyphylla (BRAPL), Digitaria sanguinalis (DIGSA) and Amaranthus tuberculatus (AMATU). Put plainly: Glasshouse herbicide efficacy test of mesotrione compositions with adjuvant against four weed species. The format is in vivo. The protocol:
as §1, with “mesotrione,” for “fomesafen,”, “Mesotrione” for “Fomesafen”, “at” for “at a rate of”, “Polygonum convolvulus (POLCO;” for “Chenopodium album (CHEAL; growth stage 14), Abutilon theophrasti (ABUTH; growth stage 12), Setaria viridis (SETVI;”, “Brachiaria platyphylla (BRAPL;” for “and Xanthium strumarium (XANST;”, “13)” for “12).”
Digitaria sanguinalis (DIGSA; growth stage 13) and Amaranthus tuberculatus (AMATU; growth stage 13).
Each spray test was replicated three times. The efficacy of the herbicide was assessed visually and expressed as a percentage of the leaf area killed. Samples were assessed at time periods of 7, 14 and 21 days following application. The results shown below in Table 10 are mean averages over the two rates of mesotrione, three replicates, four weed species and the three assessment timings, and are compared to the efficacy of mesotrione in the absence of adjuvant and mesotrione plus the commercial tank mix adjuvant Turbocharge® (applied at 0.5% v/v).

As to `CS(=O)(=O)NC(=O)c1cc(Oc2ccc(C(F)(F)F)cc2Cl)ccc1[N+](=O)[O-]` [Fomesafen], in assay [1], the “Mean percentage kill (percentage of the leaf area killed), mean across species” value stood at 14.3 C %.

Take `CS(=O)(=O)c1ccc(C(=O)C2C(=O)CCCC2=O)c([N+](=O)[O-])c1` [Mesotrione]: in assay [2] (mean over mesotrione 60 and 120 g/ha, three replicates, four weed species, 7, 14 and 21 days after application, adjuvant 0.5% v/v, 200 liters per hectare), the “Mean percentage kill (percentage of the leaf area killed), mean across species” value was found to be 49.6 B %.

Turning to `CCCCC(CC)COC(=O)c1ccccc1C(=O)OCC(CC)CCCC` (stereo not drawn) [bis-2-ethylhexylphthalate, Bis(2-ethylhexyl) phthalate], in assay [2] (adjuvant 0.5% v/v with mesotrione, versus mesotrione without adjuvant), the “Adjuvant effect on efficacy of the herbicide (in words)” value is reported as “increases the efficacy of the herbicide mesotrione”.
